Laboratory results from US20070071681A1, “Apparatus and method for computer modeling type 1 diabetes” (Entelos, Inc., priority 2005, published 2007).
Like-named read-outs stand apart in the source and are kept apart here.

Columns and labels:
[1] = system: NOD mouse; conditions: cited from earlier work; for Protection in the NOD mouse: protective therapeutic interventions suggested to depend on NK cell activities; for Protection from diabetes: pre-diabetic NOD mice
[2] = system: BB rats; conditions: cited from earlier work
[3] = system: average virtual NOD mouse; assay: Simulation of therapy protocols in the average virtual NOD mouse (computer model of type 1 diabetes); conditions: expectation from published data
Source text: One application of a NOD mouse type 1 diabetes model is to improve understanding of type 1 diabetes pathogenesis in the NOD mouse. Model development therefore focused on islet β cell autoimmunity and tolerance, as well as related mechanisms and interventions. To provide for general immunologic function and not only progression to diabetes, the development effort included representation of several NOD mouse phenotypes. The first phenotype was an average diabetic virtual mouse. […] Typically, a simulation of the average virtual mouse concludes shortly after diabetes diagnosis, which is consistent with post-diabetic sacrifice of NOD mice in the laboratory. […] Additional virtual mice, each with different clinical behaviors and/or underlying pathophysiologies, have also been generated. Similarly, development of modals of type 1 diabetes in other mammals, such as humans, can include the development of various virtual patients representing normal animals or animals having varying degrees of severity or progression of type 1 diabetes.
Because diabetes is typically assessed by measuring blood or urinary glucose, blood glucose levels were represented in the model's clinical read-out. Hyperglycemia (a diabetes indicator) was defined as a glucose level in excess of a commonly used standard (e.g., 200, 250, 300, 350 mg/dl). Glucose control was regulated based on a mathematical relationship describing interactions between blood insulin and glucose concentrations.
These include (i) dynamics of diabetes onset, (ii) dynamics of pancreatic lymph node (PLN) lymphocyte activation and expansion, and (iii) dynamics of islet infiltrate.
Numerous interventions have been tested in the NOD mouse. A major purpose of implementing selected interventions is to provide constraints for the virtual mouse, where constraints are defined as additional behavioral criteria that the virtual mouse should reproduce in a manner substantially consistent with published data. […]

[4] = system: recent onset diabetic patients; conditions: cited from earlier work; for Therapeutic response: insulin tolerization

Compound: CN(C(=O)c1c(O)c2ccccc2n(C)c1=O)c1ccccc1 [linomide]
- Protection in the NOD mouse [1]: protection

Compound: NC(=O)c1cccnc1 [nicotinamide]
- Protection from diabetes [1]: protection
- Protection from diabetes [2]: not

Compound: Exendin-4: exendin-4; enhances glucose-dependent insulin secretion
- Incidence ([1]; Exendin-4, Ogawa 2004, 7-17 days after diagnosis of diabetes, 12 nmol/kg for 4 consec. days twice): No remission
- Expected virtual mouse outcome ([3]; Exendin-4, Ogawa 2004 protocol): No remission

Compound: Exogenous TGF-β: exogenous TGF-β delivered as 200 μg of pCMV-TGF-β1
- Incidence ([1]; Exogenous TGF-β, Piccirillo 1998, 9-32 wks, 200 μg of pCMV-TGF-β1 every 2 wks, at 32 wks, vs 100% control): 42% vs. 100% control at 32 wks
- Insulitis ([1]; Exogenous TGF-β, Piccirillo 1998): Reduced severity of insulitis
- Other observations ([1]; Exogenous TGF-β, Piccirillo 1998, islet mRNA levels): Reduced mRNA levels of islet IL-12 & IFN-γ

Compound: IFN-α
- Protection in the NOD mouse [1]: protective

Compound: Oral insulin: orally administered (porcine) insulin for induction of oral tolerance
- Incidence ([1]; Oral insulin, Homann 1999 (1 mg), Rx 5-45 weeks, at 45 weeks, vs 63% control): 26% treated vs.
- Incidence ([1]; Oral insulin, Zhang 1991 (0.1 mg), Rx 5-52 weeks, at 52 weeks, vs 49% control): 44% treated vs.
- Incidence ([1]; Oral insulin, Zhang 1991 (1 mg), Rx 5-52 weeks, at 52 weeks, vs 49% control): 26% treated vs.
- Protection against diabetes ([1]; oral administration of insulin, induction of oral tolerance): protect against diabetes
- Protection from diabetes [1]: protection
- Expected virtual mouse outcome ([3]; Oral insulin, Homann 1999 (1 mg), at 45 weeks): No diabetes at 45
- Expected virtual mouse outcome ([3]; Oral insulin, Zhang 1991 (1 mg), at 52 weeks): No diabetes at 52 weeks
- Protection from diabetes [2]: not

Compound: hOKT3γ1 (Ala-Ala): modified, dimeric non-FcR binding anti CD3 antibody used in human clinical trials
- Human clinical trial results ([4]; recent onset diabetic patients, Herold 2002): promising

Compound: insulin: insulin tolerization therapy tested in human clinical trials
- Therapeutic response ([4]; general clinical trial population): responded poorly
- Therapeutic response ([4]; patients characterized by high insulin autoantibody titers): better therapeutic responses

Compound: poly(I:C)
- Protection in the NOD mouse [1]: protective
